A short description of data set [1]: Cynomolgous monkey plasma stability. The data set is classed as in vitro ADME. The note with it: 37° C., 1 μM final incubation concentration, parent compound by LC-MS-MS. As for the experimental part: Cynomolgous Monkey Plasma Stability
To determine the half life of the test compound in cynomolgous monkey plasma, incubations were performed at 37° C. in a shaking water bath. The test compound (5 μL of a 100 μM stock in MeCN) was spiked into 0.495 mL plasma to give a final incubation concentration of 1 μM. Aliquots (50 μL) were withdrawn at various time points (typically 0, 20 and 40 sec, 1, 2, 3, 5 and 10 mins) and quenched into MeCN (300 μL) followed by analysis for parent compound by LC-MS-MS (MRM mode). The half life was calculated from the decline of test compound peak area over time

A short description of the next data set: Human plasma stability. It is filed as in vitro ADME. The note with it: 37° C., 1 μM final incubation concentration, parent compound by LC-MS-MS. As to the method:
To determine the half life of the test compound in human plasma, incubations were performed at 37° C. in a shaking water bath. Compound (5 μL of a 100 μM stock in MeCN) was spiked into 0.495 mL plasma to give a final incubation concentration of 1 μM. Aliquots (50 μL) were withdrawn at various time points (typically 0, 20 and 40 sec, 1, 2, 3, 5 and 10 mins) and quenched into MeCN (300 μL) followed by analysis for parent compound by LC-MS-MS (MRM mode). The half life was calculated from the decline of test compound peak area over time.

A further data set concerns the target T1, human TLR7 (Homo sapiens, UniProt Q9NYK1).
T1 construct: expressed in transfected cells; host or cells: HEK293 cell line stably expressing the pNiFty2-SEAP reporter plasmid; TLR7 in pUNO vector, blasticidin selection
T1 sequence (Q9NYK1 27-1049): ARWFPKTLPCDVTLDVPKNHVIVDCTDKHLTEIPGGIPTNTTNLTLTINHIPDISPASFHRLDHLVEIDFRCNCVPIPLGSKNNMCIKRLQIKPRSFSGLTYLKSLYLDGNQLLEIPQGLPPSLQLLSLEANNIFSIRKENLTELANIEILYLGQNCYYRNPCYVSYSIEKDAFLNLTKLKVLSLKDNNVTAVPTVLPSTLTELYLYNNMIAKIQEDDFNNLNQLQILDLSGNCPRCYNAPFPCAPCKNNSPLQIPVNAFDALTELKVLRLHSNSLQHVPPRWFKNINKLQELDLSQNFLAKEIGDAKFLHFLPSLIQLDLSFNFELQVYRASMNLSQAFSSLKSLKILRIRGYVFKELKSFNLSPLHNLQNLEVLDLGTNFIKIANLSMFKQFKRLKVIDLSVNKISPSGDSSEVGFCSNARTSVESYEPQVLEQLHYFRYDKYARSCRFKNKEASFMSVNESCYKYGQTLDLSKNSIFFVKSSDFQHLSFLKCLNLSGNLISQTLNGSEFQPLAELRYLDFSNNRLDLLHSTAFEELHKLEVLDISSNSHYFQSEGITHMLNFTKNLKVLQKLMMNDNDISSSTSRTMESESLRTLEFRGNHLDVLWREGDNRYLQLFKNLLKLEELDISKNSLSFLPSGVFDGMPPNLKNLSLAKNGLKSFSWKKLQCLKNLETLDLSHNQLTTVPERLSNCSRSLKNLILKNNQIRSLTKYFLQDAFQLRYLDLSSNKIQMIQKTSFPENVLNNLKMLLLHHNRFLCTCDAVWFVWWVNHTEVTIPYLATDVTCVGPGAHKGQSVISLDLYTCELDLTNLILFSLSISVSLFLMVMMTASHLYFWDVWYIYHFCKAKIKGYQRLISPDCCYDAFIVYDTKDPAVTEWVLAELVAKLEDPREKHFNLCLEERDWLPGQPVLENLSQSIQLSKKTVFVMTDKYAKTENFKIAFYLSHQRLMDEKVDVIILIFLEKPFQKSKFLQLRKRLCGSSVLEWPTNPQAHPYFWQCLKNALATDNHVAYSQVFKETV
The data set is described as follows: Human TLR7 assay (SEAP reporter in HEK293 cells). The data set is classed as cell-based. The note with it: HEK293 cell line expressing recombinant human TLR7 and pNiFty2-SEAP reporter; overnight incubation at 37° C., 0.1% DMSO; read-out: mean pEC50 (concentration producing half of the maximal level of SEAP induction) (converted). From the text:
Recombinant human TLR7 was stably expressed in a HEK293 cell line already stably expressing the pNiFty2-SEAP reporter plasmid; integration of the reporter gene was maintained by selection with the antibiotic zeocin. The most common variant sequence of human TLR7 (represented by the EMBL sequence AF240467) was cloned into the mammalian cell expression vector pUNO and transfected into this reporter cell-line. Transfectants with stable expression were selected using the antibiotic blasticidin. In this reporter cell-line, expression of secreted alkaline phosphatase (SEAP) was controlled by an NFkB/ELAM-1 composite promoter comprising five NFkB sites combined with the proximal ELAM-1 promoter. TLR signaling leads to the translocation of NFkB and activation of the promoter results in expression of the SEAP gene. TLR7-specific activation was assessed by determining the level of SEAP produced following overnight incubation of the cells at 37° C. with the test compound prepared above in the presence of 0.1% (v/v) dimethylsulfoxide (DMSO). Concentration dependent induction of SEAP production by compounds was expressed as the concentration of compound which produced half of the maximal level of SEAP induction for that compound (pEC50).

A short description of data set [2]: Gravimetric Vapour Sorption (GVS). It is filed as physicochemical. As to the method: Gravimetric Vapour Sorption (GVS) profiles were measured using a TA Instruments Q5000SA instrument. Approximately 1 mg to 5 mg of the solid sample was placed into a metal vessel, and the weight of the sample was recorded during a dual cycle step method (40 to 90 to 0 to 90 to 0% relative humidity (RH), in steps of 10% RH).

By half-life is commonly meant the time in which the quantity being followed falls by half. Take `CCOCc1nc2c(N)nc3ccccc3c2n1CCCN(Cc1cccc(CC(=O)OC)c1)C(=O)CN(C)C` [Comparative Example 1, Methyl 2-(3-((N-(3-(4-amino-2-(ethoxymethyl)-1H-imidazo[4,5-c]quinolin-yl)propyl)-2-(dimethylamino)acetamido)methyl)phenyl)acetate, reference compound]: the half-life at 1 μM in data set [1] was 660 s; in the data set “Human plasma stability”, 42 s.

`CCOCc1nc2c(N)nc3ccccc3c2n1CCCCN(Cc1cccc(CC(=O)OC)c1)C(=O)CN(CC)CC` [Compound (I), Methyl (3-{[{4-[4-amino-2-(ethoxymethyl)-1H-imidazo[4,5-c]quinolin-1-yl]butyl}(N,N-diethylglycyl)amino]methyl}phenyl)acetate]: the EC50 on human TLR7 is 39.8 nM. Also, the figures for the half-life at 1 μM (in data set [1]; in the data set “Human plasma stability”) were 72 s and 18 s, respectively. In data set [2] (cycle 1), the “mass increase at 80% relative humidity, cycle 1” value amounted to 0.5%. The “mass increase at 80% relative humidity, cycle 2” value in data set [2] (cycle 2) was 0.64%.

The values above are taken from patent publication US9045472B2, “Imidazoquinoline compounds” (ASTRAZENECA AB, priority 2010, dated 2015).
